Data published in ChEMBL document CHEMBL1155171, “Synergistic activity of dispersin B and cefamandole nafate in inhibition of staphylococcal biofilm growth on polyurethanes” (Antimicrob Agents Chemother, 2007).
Calls of active or inactive are those of the source. No cut-off for these calls is given here.

Tests used:
[1] = system: Staphylococcus epidermidis; assay: Antibacterial activity against oxacillin-sensitive Staphylococcus epidermidis ATCC 12228 at 0.25 ug/ml after 18 hrs; type: functional, organism-based
[2] = system: Staphylococcus epidermidis; assay: Antibacterial activity against oxacillin-sensitive Staphylococcus epidermidis ATCC 12228 assessed as reduction in number of viable biofilm associated bacteria in presence of dispersin B; type: functional, organism-based

## Cn1nnnc1SCC1=C(C(=O)O)N2C(=O)[C@@H](NC(=O)[C@H](OC=O)c3ccccc3)[C@H]2SC1
[1]
  Activity: Active
[2]
  Activity: Active
